From patent publication US6780821B1, “Substituted phenyl uracils” (Bayer Aktiengesellschaft, priority 1998, dated 2004)

SMILES	melting point [°C]
COc1ccc(Oc2cc(-n3c(=O)cc(C(F)(F)F)[nH]c3=O)c(F)cc2C#N)cc1 [Example 1, 4-(3,6-dihydro-2,6-dioxo-4-trifluoromethyl-1(2H)-pyrimidin-1-yl)-5-fluoro-2-(4-methoxy-phenoxy)-benzonitrile]	84
COc1ccc(Oc2cc(-n3c(=O)cc(C(F)(F)F)n(C)c3=O)c(F)cc2C#N)cc1 [Example 2, 4-(3,6-dihydro-2,6-dioxo-3-methyl-4-trifluoromethyl-1(2H)-pyrimidin-1-yl)-5-fluoro-2-(4-methoxy-phenoxy)-benzonitrile]	62
